Earlier results as cited in patent publication US20250213572A1, “TYK2 INHIBITORS AND USES THEREOF” (Takeda Pharmaceutical Company Limited, priority 2022, published 2025).

Legend:
[1] = tested on: moderate-to-severe psoriasis; details: 30 mg twice-daily; at four weeks; cited from earlier work
[2] = tested on: moderate-to-severe ulcerative colitis; details: 6 mg once-daily; cited from earlier work
psoriasis = details: dose ranges used in the Phase 3 trials; cited from earlier work

Compound	mean PASI reduction [1]	primary endpoint of clinical remission at 12 weeks [2]	increase of responses at 12 weeks compared to four weeks (psoriasis)
CCOc1cc([C@@H](CS(C)(=O)=O)N2C(=O)c3cccc(NC(C)=O)c3C2=O)ccc1OC [Otezla®]	37%		
deucravacitinib [reference compound]		did not achieve its primary endpoint of clinical remission at 12 weeks	three- to four-fold
guselkumab: an anti-IL-23 monoclonal antibody			three- to four-fold
